{
  "source": "patent US20120321587A1",
  "about": "“COMPOSITIONS AND METHODS OF USE PERTAINING TO INSECTICIDE” (priority 2009, published 2012)",
  "origin": "cited, not measured here",
  "test_system": "aphids",
  "conditions": "nymphs and adults",
  "data": [
    {"smiles": "CCCCCCCCOC(=O)CC(C(=O)OCCCCCCCC)S(=O)(=O)O.[Na]", "note": "(centres unmarked) [sodium dioctyl sulfosuccinate]", "values": [
      {"measurement": "efficacy in treating aphids", "value": "primary compound responsible for the observed insecticidal activity"}
    ]},
    {"smiles": "CCCCCCCCCCCCOS(=O)(=O)[O-].[Na+]", "note": "[sodium lauryl sulfate]", "values": [
      {"measurement": "efficacy in treating aphids", "value": "limited efficacy"}
    ]}
  ]
}
